Test results as given in patent publication US20230346735A1, “Nutritional Composition Comprising Carnitine and Method for Treating or Preventing an Infection in a Mammal” (priority 2020, published 2023).
Marks after values point to notes of the source that are not given here.

Tests used:
TMPRSS2 = TMPRSS2 protein and mRNA in rat tissue samples; type: in vivo; conditions: exercised rats
Excerpt: (§1) After a week of the adaptation period, the rats were divided into eight equal groups containing seven rats each. The initial body weights of the rats were similar in all the groups (214.53 grams ± 4.67; P > 0.05).
(§2) Groups 1 and 2 were not subjected to an exercise routine. Groups 3-8 were subjected to an exercise regimen consisting of a week training period with an incremental exercise capacity described below. After the week training period the exercise regimen followed was each rat in Groups 3-8 were subjected to 6 weeks of running at 25 m/min during 45 min […]. […] These correspond to 0, 250, 500, 1000, 2000 and 4000 mg per day for humans, respectively.
To determine the protein accumulation in the liver, muscle and lung samples, a Western Blotting test was used. Each of the tissue samples of the same group were pooled, homogenized, and sonicated in lysis buffer supplemented with 1X protease and phosphatase inhibitor cocktail (#5872, Cell Signaling). Total protein content was detected with Qubit 2.0 Fluorometer according to the manufacturer’s protocol (Invitrogen, Life Technologies Corporation, Carlsbad, CA, USA). […] Protein levels were analyzed densitometrically using an image analysis system (Image J; National Institute of Health, Bethesda, MD, USA), corrected with values determined on β-actin blots and expressed as relative values compared with the control group. […]

superoxide dismutase = assay: Antioxidant capacity: superoxide dismutase in exercised rats; type: in vivo, rat; conditions: 6 weeks
Method: Fifty-six (56) Male Wistar rats that were 8-week old were obtained. The rats were reared at the temperature of 22 ± 2° C., the humidity of 55 ± 5%, and with a 12-hrs light-12-hrs dark cycle. All procedures involving rats were conducted in strict compliance with the relevant laws, the Animal Welfare Act, Public Health Services Policy, and guidelines established by the Institutional Animal Care and Use Committee of the Institute of the contracted University which completed the study.
as §1, §2
The exercised rats were subjected to treadmill exercise on a motorized rodent treadmill (Commat Limited, Ankara, Turkey). The treadmill contained a stimulus grid at the back end of the treadmill giving an electric shock when the animal placed its paw on the grid. […] To eliminate the diurnal variations, all exercise tests were applied during the same time of the day. The week of training period was provided as pre-training practice for the animals to get familiar with the treadmill equipment and handling. In doing so, the rats in the exercise training groups were accustomed by treadmill exercise over 5 days such that: (i) 1st day, 10 m/min for 10 min, (ii) 2nd day, 20 m/min for 10 min, (iii) 3rd day, 25 m/min for 10 min, (iv) 4th day, 25 m/min for 20 min and (v) 5th day, 25 m/min for 30 min. After the training period, the rats in treadmill exercise groups ran on the treadmill 25 m/min for 45 min/ per day and five days per week for 6 weeks according to the protocol described by Sahin et al. Capsaicinoids Improve the Consequences of Physical Activity. Toxicol Rep. 2018;5:598-607, which is hereby incorporated by reference.
The exercise regimen was used to induce an inflammation and oxidative stress conditions. […] The results of malondialdehyde, superoxide dismutase, catalase, and glutathione peroxidase for each rat group are shown in TABLE 2.

C[N+](C)(C)C[C@H](O)CC(=O)[O-] [L-carnitine]
TMPRSS2 mRNA levels (TMPRSS2; tissues, versus exercise control): dose-dependent decrease | TMPRSS2 protein level (TMPRSS2; western blotting): return to the baseline control | SOD (superoxide dismutase; Car200: 200 mg/kg oral gavage, no exercise): 95.87±2.47^cd U/mg protein | SOD (superoxide dismutase; Ex+Car25: exercise, 25 mg/kg oral gavage): 96.49±0.78^cd U/mg protein | SOD (superoxide dismutase; Ex+Car50: exercise, 50 mg/kg oral gavage): 102.89±2.69^bc U/mg protein | SOD (superoxide dismutase; Ex+Car100: exercise, 100 mg/kg oral gavage): 109.68±2.49^ab U/mg protein | SOD (superoxide dismutase; Ex+Car200: exercise, 200 mg/kg oral gavage): 114.56±2.70^a U/mg protein | SOD (superoxide dismutase; Ex+Car400: exercise, 400 mg/kg oral gavage): 120.16±3.58^a U/mg protein
